Molecules are shown by their SMILES.

One assay relates to cultured nerve cells. The experiment in a line: Action of protecting cultured nerve cells from glutamic acid toxicity (LDH leakage). It counts as cell-based, Wistar rat. The note with it: rat fetal cerebral cortex cells, 10 mM glutamic acid, 24 hours, read-out: ED50 (the source's name). From the text: It is known that when the blood flow to the brain is temporarily clogged due to cerebral ischemia, hypoxia, or an trauma, delayed cerebral neuronal death is induced [Document: Brain Research, Vol. 239, 57 (1982)]. A possible cause of such damage of the cerebral nerve cells is excitatory toxicity due to an excitatory neutotransmitter such as glutamic acid or the like, which is excessively released with ischemia [Document: Trends in Neuroscience, vol. 10, 299 (1987)]. […] This is a problem to be solved by the invention. This action was evaluated by using the in vitro evaluation system which will be described below.
A fetus was taken from the abdomen of a Wistar female rat on the 18 to 19th day of pregnancy under aseptic conditions, and the head of the fetus was opened to extract the brain. The brain was placed in an ice-cooled L-15 medium, and the cerebral cortex was separated under a microscope. The cerebral cortexes of about 30 rats were cut into pieces, and then suspended in 10 ml of a 0.25% trypsin solution and 0.2 ml of a 0.01% DNase solution, followed by culture at 37° C. for 30 minutes. Then, 2 ml of serum was added to the solution, and immediately the resultant mixture was centrifuged at 120 rpm for 2 minutes to separate the precipitates. To the precipitates was added 7 ml of a DF medium (a medium obtained by adding 20 nM of transferrin, 5 μg/ml of insulin, 20 nM of progesterone,60 nM of selenite, 50 U/ml of penicillin, and 50 U/ml of streptomycin to a mixture equivalent amounts of Dulbecco modified Eagle medium and F-12 medium), followed by 20 pipetting operations using a 10-ml plastic pipette to obtain a cell suspension. The cell suspension was filtered with nylon mesh (pore diameter 43 μm) to fractionate isolated cells. The thus-obtained isolated cells were diluted with a DF medium to a concentration of 6.0×10^5 cells/ml, and 500 μl of the diluted cells was inoculated in each of the 48 wells of a 48-well culture plate precoated with polylysine, followed by culture at 37° C. for 1 day in the presence of 5% of CO2. On the 2nd day, the medium was changed to a new DF medium, and 10 μl of a solution of 0.5M glutamic acid in distilled water was added to each of the wells (the final glutamic acid concentration was 10 mM), followed by further culture at 37° C. for 24 hours in the presence 5% of CO2. A test compound was dissolved in distilled water, 10% or 100% DMSO or 10% methanol, and 5 μl of the solution was added to each of the wells immediately before glutamic acid was added. As an index of nerve cell damage, the enzyme activity of lactic acid dehydrogenase (LDH) leaking from the damaged cells into the medium was measured. For each of the test compounds, the LDH leakage was measured at each of concentrations to determine a dose-response curve by the modified Cochran-Armitige method. The 50% effective dose (ED50) of each of the test compounds we determined from the curve.
Background: LDH leaks from cells whose membrane has failed.

The subject of assay [1] is middle cerebral artery ischemia model of rat. The assay is described as follows: Infarction inhibiting action in middle cerebral artery ischemia (MCAo-recirculation) model of rat. The note with it: ip, 24 h, 3 mg/kg i.p. 10 minutes before occlusion and 1 hour after recirculation, infarction volume one day after, vs control group, read-out: Rate of inhibition of infarction. Type of assay: in vivo. An excerpt: It is also known that, in this way, in the acute stage of cerebral infarction, the lesion proceeds to the peripheral tissue from the core of infarction, and death of the nerve cells is extended with the passage of several days. This possible not only extends and creates grave aftereffects, and causes loss of motor and mental function, but also finally critically influences on the life. As an in vivo experimental model of cerebral infarction which is capable of precisely evaluating the clinical effect of a medicine in conformity with clinical conditions of the disease of a patient of cerebral infarction, the middle cerebral artery occlusion (MCAo)-recirculation model comprising an embolus with a yarn using Wister rates may be used [Document: Japan Journal of Stroke, vol. 8, 1 (1986)]. […] This action was evaluated by applying the MCAo model by the method which will be described below.
In rats of 10 weeks old, after etherization, a median incision of the cervical region was made up to the right carotid artery bifurcation under 1.0% halothane anesthetization with care to preserve the vagus nerves. The common carotid artery and the external carotid artery were separated from the periphery connective tissue with the right carotid artery bifurcation as the center, and each of the arteries was ligated by a 6-0 silk yarn (Eto yarn). Further, a yarn was wound on the internal carotid artery origin in preparation for ligation and fixing after insertion of the embolus. Next, the common carotid artery was incised, and the embolus was inserted from the common carotid artery to the internal carotid artery by about 15 to 16 mm, and ligated and fixed to the internal carotid artery by the silk yarn at the end thereof near the nylon yarn. In this operation, the end of the embolus was inserted into the anterior cerebral artery by about 1 to 2 mm beyond the middle cerebral artery bifurcation, and the inlet of the middle cerebral artery was occluded by the body (resin part) of the embolus for 1 hours. In recirculation, the embolus with a yarn was removed to recirculate the blood flow to the middle cerebral artery. 3 mg/kg of each of test compounds was intraperitoneally administered 10 minutes before occlusion and 1 hour after recirculation of the blood flow. One day after occlusion and recirculation, the whole body was perfused with physiologic saline through the heart, and the brain was extracted. The extracted brain was cooled with ice and water for 5 minutes, and cut at intervals of 2.0 mm to form 7 sections of the cerebral coronal surface. Each of the sections was stained with TTC (Triphenyltetrazolium Chloride), and fixed by a 5% neutral buffer formalin solution. In each of the sections, the infarction area in the right cerebral hemisphere was measured by an image analyzer (Olympus), and the infarction was evaluated by volume (mm^3). The infarction volume was compared with the infarction volume of a control group to calculate the rate of inhibition of infarction.

Turning to `Oc1ccc2c3c1O[C@H]1c4[nH]c5c(cc6c7c(cccc75)-c5ccccc5-6)c4C[C@@]4(O)[C@@H](C2)N(CC2CC2)CC[C@]314` [Compound 19, 17-cyclopropylmethyl-3,14β-dihydroxy-6,7-dehydro-4,5α-epoxy-6,7,2',3'-(5',6"-benzeno-6',7'-benzoindolo)morphinan], in the assay with cultured nerve cells, the EC50 is 200 nM. The inhibition in vivo at 3 mg/kg in assay [1] was found to be 29%.
The matching figures for `Oc1ccc2c3c1O[C@H]1c4[nH]c5c6c(ccc5c4C[C@@]4(O)[C@@H](C2)N(CC2CC2)CC[C@]314)-c1ccccc1C6` [Compound 20, 17-cyclopropylmethyl-3,14β-dihydroxy-6,7-dehydro-4,5α-epoxy-6,7,2',3'-(6',7',3",2"-indenoindolo)morphinan]: 27 nM and 10%.
The matching figures for `NCCCn1c2c(c3ccc4ccccc4c31)C[C@@]1(O)[C@H]3Cc4ccc(O)c5c4[C@@]1(CCN3CC1CC1)[C@H]2O5` [Compound 25, 17-cyclopropylmethyl-3,14β-dihydroxy-6,7-dehydro-4,5α-epoxy-6,7,2',3'-[1'-(3-aminopropyl)-6',7'-benzoindolo]morphinan]: 300 nM and 15%.
The corresponding values for `O=C(NCCCn1c2c(c3ccccc31)C[C@@]1(O)[C@H]3Cc4ccc(O)c5c4[C@@]1(CCN3CC1CC1)[C@H]2O5)c1ccccc1` [Compound 61, 17-cyclopropylmethyl-3,14β-dihydroxy-6,7-dehydro-4,5α-epoxy-6,7,2',3'-[1'-(3-benzamidopropyl)indolo]morphinan] are 140 nM and 29%.
As for `O=C(NCCCn1c2c(c3ccc4ccccc4c31)C[C@@]1(O)[C@H]3Cc4ccc(O)c5c4[C@@]1(CCN3CC1CC1)[C@H]2O5)c1cccnc1` [Compound 66, 17-cyclopropylmethyl-3,14β-dihydroxy-6,7-dehydro-4,5α-epoxy-6,7,2',3'-[1'-(3-nicotinamidopropyl)-6',7'-benzoindolo]morphinan], the EC50 in the assay with cultured nerve cells turned out to be 400 nM. Also, in assay [1], the inhibition in vivo at 3 mg/kg was found to be 25%.
As to `Oc1ccc2c3c1O[C@H]1c4c(c5ccc6ccccc6c5n4CCCNC(=S)NCc4ccccc4)C[C@@]4(O)[C@@H](C2)N(CC2CC2)CC[C@]314` [Compound 67, 17-cyclopropylmethyl-3,14β-dihydroxy-6,7-dehydro-4,5α-epoxy-6,7,2',3'-[1'-[3-(N'-benzylthioureido)propyl]-6',7'-benzoindolo]morphinan], the EC50 in the assay on cultured nerve cells worked out at 27 nM. In addition, in assay [1], the inhibition in vivo at 3 mg/kg is 39%.
For the compound `Oc1ccc2c3c1O[C@H]1c4c(c5ccc6ccccc6c5n4Cc4ccccc4)C[C@@]4(O)[C@@H](C2)N(CC2CC2)CC[C@]314` [Compound 69, 17-cyclopropylmethyl-3,14β-dihydroxy-6,7-dehydro-4,5α-epoxy-6,7,2',3'-(1'-benzyl-6',7'-benzoindolo)morphinan], in the assay on cultured nerve cells, the EC50 turned out to be 9.3 nM. Besides, in assay [1], the inhibition in vivo at 3 mg/kg amounted to 69%.
The matching figures for `Oc1ccc2c3c1O[C@H]1c4c(c5ccc6ccccc6c5n4Cc4ccc(F)cc4)C[C@@]4(O)[C@@H](C2)N(CC2CC2)CC[C@]314` [Compound 70]: 15 nM and 34%.
As for `Cn1c2c(c3ccc4ccccc4c31)C[C@@]1(O)[C@H]3Cc4ccc(O)c5c4[C@@]1(CCN3CC1CC1)[C@H]2O5` [Compound 72, 17-cyclopropylmethyl-3,14β-dihydroxy-6,7-dehydro-4,5α-epoxy-6,7,2',3'-(1'-methyl-6',7'-benzoindolo)morphinan], in the assay on cultured nerve cells, the EC50 worked out at 26 nM. Moreover, the inhibition in vivo at 3 mg/kg in assay [1] amounted to 85%.
The matching figures for `Cn1c2c(c3cc4c5c(cccc5c31)-c1ccccc1-4)C[C@@]1(O)[C@H]3Cc4ccc(O)c5c4[C@@]1(CCN3CC1CC1)[C@H]2O5` [Compound 77, 17-cyclopropylmethyl-3,14β-dihydroxy-6,7-dehydro-4,5α-epoxy-6,7,2',3'-(1'-methyl-5',6"-benzeno-6',7'-benzoindolo)morphinan]: 160 nM and 84%.
For `Oc1ccc2c3c1O[C@H]1c4c(c5cc6c7c(cccc7c5n4Cc4ccccc4)-c4ccccc4-6)C[C@@]4(O)[C@@H](C2)N(CC2CC2)CC[C@]314` [Compound 79, 17-cyclopropylmethyl-3,14β-dihydroxy-6,7-dehydro-4,5α-epoxy-6,7,2',3'-(1'-benzyl-5',6"-benzeno-6',7'-benzoindolo)morphinan], the EC50 in the assay on cultured nerve cells turned out to be 190 nM. In assay [1], the inhibition in vivo at 3 mg/kg was found to be 26%.
For the compound `Oc1ccc2c3c1O[C@H]1c4c(c5ccc6ccccc6c5n4CCc4ccccc4)C[C@@]4(O)[C@@H](C2)N(CC2CC2)CC[C@]314` [Compound 80, 17-cyclopropylmethyl-3,14β-dihydroxy-6,7-dehydro-4,5α-epoxy-6,7,2',3'-[1'-(2-phenylethyl)-6',7'-benzoindolo]morphinan], the EC50 with cultured nerve cells was determined as 37 nM. Besides, the inhibition in vivo at 3 mg/kg in assay [1] came out at 29%.
The matching figures for `OCCn1c2c(c3ccc4ccccc4c31)C[C@@]1(O)[C@H]3Cc4ccc(O)c5c4[C@@]1(CCN3CC1CC1)[C@H]2O5` [Compound 81, 17-cyclopropylmethyl-3,14β-dihydroxy-6,7-dehydro-4,5α-epoxy-6,7,2',3'-[1'-(2-hydroxyethyl)-6',7'-benzoindolo]morphinan]: 67 nM and 11%.
